Legend:
Experiment in all cases: in vivo yeast assay, GC-MS of products
CYP72A559 = target: T1, CYP72A559 (Medicago truncatula, UniProt A0A5P8TXY6); type: cell-based; details: beta-amyrin formed in the cell by co-expressed OSC1; L. japonicus CPR; 30°C, 4 days
T1 construct: full length, expressed in S. cerevisiae INVSc1 with Lotus japonicus CPR and beta-amyrin synthase OSC1
T1 sequence (A0A5P8TXY6 1-518): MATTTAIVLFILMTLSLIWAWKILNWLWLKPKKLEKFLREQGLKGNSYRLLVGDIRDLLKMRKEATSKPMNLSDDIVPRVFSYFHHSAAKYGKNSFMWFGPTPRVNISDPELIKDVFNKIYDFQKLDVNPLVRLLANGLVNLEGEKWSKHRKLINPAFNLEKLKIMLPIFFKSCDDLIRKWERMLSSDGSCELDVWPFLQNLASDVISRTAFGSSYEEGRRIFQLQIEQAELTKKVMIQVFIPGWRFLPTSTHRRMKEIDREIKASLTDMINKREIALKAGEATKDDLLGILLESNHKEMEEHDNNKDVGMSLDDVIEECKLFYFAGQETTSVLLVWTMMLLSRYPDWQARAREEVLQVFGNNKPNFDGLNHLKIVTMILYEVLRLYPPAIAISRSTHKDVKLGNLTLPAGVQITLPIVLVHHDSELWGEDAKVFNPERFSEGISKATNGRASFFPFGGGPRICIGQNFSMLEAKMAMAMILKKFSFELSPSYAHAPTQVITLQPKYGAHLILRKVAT

TpCYP72A699 = target: T2, TpCYP72A699 (Trifolium pratense, UniProt A0A5P8TXT7); type: cell-based; details: beta-amyrin formed in the cell by co-expressed OSC1; L. japonicus CPR; 30°C, 4 days
T2 construct: gene CYP72A699; full length, expressed in S. cerevisiae INVSc1 with Lotus japonicus CPR and beta-amyrin synthase OSC1

CYP72A560 = target: T3, CYP72A560 (Medicago truncatula, UniProt A0A5P8TXP5); type: cell-based; details: beta-amyrin formed in the cell by co-expressed OSC1; L. japonicus CPR; 30°C, 4 days
T3 construct: full length, expressed in S. cerevisiae INVSc1 with Lotus japonicus CPR and beta-amyrin synthase OSC1

LjCYP72A697 = target: T4, LjCYP72A697 (Lotus japonicus, UniProt A0A5P8TXS9); type: cell-based; details: beta-amyrin formed in the cell by co-expressed OSC1; L. japonicus CPR; 30°C, 4 days
T4 construct: gene CYP72A697; full length, expressed in S. cerevisiae INVSc1 with Lotus japonicus CPR and beta-amyrin synthase OSC1

CYP72A63 [1] = target: T5, CYP72A63 (Medicago truncatula, UniProt H1A981); type: cell-based; details: beta-amyrin formed in the cell by co-expressed OSC1; L. japonicus CPR; 30°C, 4 days
T5 construct: full length, expressed in S. cerevisiae INVSc1 with Lotus japonicus CPR and beta-amyrin synthase OSC1
T5 sequence (H1A981 1-524): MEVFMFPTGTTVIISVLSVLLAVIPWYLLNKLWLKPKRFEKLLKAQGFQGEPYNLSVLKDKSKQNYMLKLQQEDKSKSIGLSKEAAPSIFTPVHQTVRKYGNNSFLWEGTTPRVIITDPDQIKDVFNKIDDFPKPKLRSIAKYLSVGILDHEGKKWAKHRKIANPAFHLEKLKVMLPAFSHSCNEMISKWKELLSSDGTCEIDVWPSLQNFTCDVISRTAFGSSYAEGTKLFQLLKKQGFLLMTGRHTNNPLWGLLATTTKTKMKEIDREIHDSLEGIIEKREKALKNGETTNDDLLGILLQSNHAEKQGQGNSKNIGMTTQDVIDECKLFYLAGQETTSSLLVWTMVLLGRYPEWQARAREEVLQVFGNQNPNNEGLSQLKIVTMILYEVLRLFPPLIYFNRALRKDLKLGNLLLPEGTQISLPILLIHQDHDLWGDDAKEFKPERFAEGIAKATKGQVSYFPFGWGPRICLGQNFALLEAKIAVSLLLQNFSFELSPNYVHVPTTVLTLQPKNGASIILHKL

GuCYP72A154 = target: T6, GuCYP72A154 (Glycyrrhiza uralensis, UniProt H1A988); type: cell-based; details: beta-amyrin formed in the cell by co-expressed OSC1; L. japonicus CPR; 30°C, 4 days
T6 construct: gene CYP72A154; full length, expressed in S. cerevisiae INVSc1 with Lotus japonicus CPR and beta-amyrin synthase OSC1

VaCYP72A694 = target: T7, VaCYP72A694 (Vigna angularis, UniProt A0A5P8TXJ3); type: cell-based; details: beta-amyrin formed in the cell by co-expressed OSC1; L. japonicus CPR; 30°C, 4 days
T7 construct: gene CYP72A694; full length, expressed in S. cerevisiae INVSc1 with Lotus japonicus CPR and beta-amyrin synthase OSC1

Gmax CYP72A141 = target: T8, Gmax CYP72A141 (Glycine max, UniProt A0A5P8TY68); type: cell-based; details: beta-amyrin formed in the cell by co-expressed OSC1; L. japonicus CPR; 30°C, 4 days
T8 construct: full length, expressed in S. cerevisiae INVSc1 with Lotus japonicus CPR and beta-amyrin synthase OSC1

CYP72A63 [2] = target: T9, CYP72A63 (Medicago truncatula, UniProt H1A981, L149V/L398V); type: cell-based; details: beta-amyrin formed in the cell by co-expressed OSC1; L. japonicus CPR; 30°C, 4 days
T9 construct: full length, expressed in S. cerevisiae INVSc1 with Lotus japonicus CPR and beta-amyrin synthase OSC1

CYP72A61v2 = target: T10, CYP72A61v2 (Medicago truncatula, UniProt H1A980); type: cell-based; details: beta-amyrin formed in the cell by co-expressed OSC1; L. japonicus CPR; 30°C, 4 days
T10 construct: full length, expressed in S. cerevisiae INVSc1 with Lotus japonicus CPR and beta-amyrin synthase OSC1

CYP72A66v2 = target: T11, CYP72A66v2 (Medicago truncatula, UniProt A0A5P8TY60); type: cell-based; details: beta-amyrin formed in the cell by co-expressed OSC1; L. japonicus CPR; 30°C, 4 days
T11 construct: full length, expressed in S. cerevisiae INVSc1 with Lotus japonicus CPR and beta-amyrin synthase OSC1

PvCYP72A302 = target: T12, PvCYP72A302 (Phaseolus vulgaris, UniProt A0A5P8TXN3); type: cell-based; details: beta-amyrin formed in the cell by co-expressed OSC1; L. japonicus CPR; 30°C, 4 days
T12 construct: gene CYP72A302; full length, expressed in S. cerevisiae INVSc1 with Lotus japonicus CPR and beta-amyrin synthase OSC1

GpCYP72A154 = target: T13, GpCYP72A154 (Glycyrrhiza pallidiflora, UniProt A0A5P8TXI9); type: cell-based; details: beta-amyrin formed in the cell by co-expressed OSC1; L. japonicus CPR; 30°C, 4 days
T13 construct: gene CYP72A154; full length, expressed in S. cerevisiae INVSc1 with Lotus japonicus CPR and beta-amyrin synthase OSC1
T13 sequence (A0A5P8TXI9 1-523): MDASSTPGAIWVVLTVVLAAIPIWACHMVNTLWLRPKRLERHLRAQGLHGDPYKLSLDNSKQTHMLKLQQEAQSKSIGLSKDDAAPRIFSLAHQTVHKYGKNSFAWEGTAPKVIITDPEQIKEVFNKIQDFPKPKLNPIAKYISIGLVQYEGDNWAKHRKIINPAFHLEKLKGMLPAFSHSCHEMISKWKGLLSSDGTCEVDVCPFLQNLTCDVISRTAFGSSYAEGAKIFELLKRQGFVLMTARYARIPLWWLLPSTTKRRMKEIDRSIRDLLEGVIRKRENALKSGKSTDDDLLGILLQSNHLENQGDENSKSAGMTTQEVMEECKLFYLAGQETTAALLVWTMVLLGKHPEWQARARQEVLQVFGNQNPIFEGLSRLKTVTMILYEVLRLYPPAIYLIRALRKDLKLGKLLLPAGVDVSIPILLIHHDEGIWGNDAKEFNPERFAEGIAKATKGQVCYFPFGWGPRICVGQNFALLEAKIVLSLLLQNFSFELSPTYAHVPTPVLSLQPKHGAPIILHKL

GgCYP72A154 = target: T14, GgCYP72A154 (Glycyrrhiza glabra, UniProt A0A5P8TXJ1); type: cell-based; details: beta-amyrin formed in the cell by co-expressed OSC1; L. japonicus CPR; 30°C, 4 days
T14 construct: gene CYP72A154; full length, expressed in S. cerevisiae INVSc1 with Lotus japonicus CPR and beta-amyrin synthase OSC1
T14 sequence (A0A5P8TXJ1 1-523): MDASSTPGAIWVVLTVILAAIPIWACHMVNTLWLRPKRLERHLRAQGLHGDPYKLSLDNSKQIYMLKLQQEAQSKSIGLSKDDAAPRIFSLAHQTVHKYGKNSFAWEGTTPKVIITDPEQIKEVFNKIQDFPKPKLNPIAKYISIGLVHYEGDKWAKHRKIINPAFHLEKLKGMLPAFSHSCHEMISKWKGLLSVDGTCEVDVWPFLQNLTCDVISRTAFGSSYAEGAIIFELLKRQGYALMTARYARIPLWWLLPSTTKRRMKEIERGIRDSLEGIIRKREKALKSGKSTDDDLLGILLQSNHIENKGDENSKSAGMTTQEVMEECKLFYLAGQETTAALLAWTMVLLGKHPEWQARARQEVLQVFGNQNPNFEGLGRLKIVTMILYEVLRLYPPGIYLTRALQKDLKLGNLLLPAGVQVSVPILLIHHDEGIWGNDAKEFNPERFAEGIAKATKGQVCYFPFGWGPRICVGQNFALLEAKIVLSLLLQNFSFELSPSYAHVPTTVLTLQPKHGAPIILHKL

CYP72A62v2 = target: T15, CYP72A62v2 (Medicago truncatula, UniProt H1A982, V149L/V398L); details: beta-amyrin formed in the cell by co-expressed OSC1; L. japonicus CPR; 30°C, 4 days; CYP72A63-based numbering
T15 construct: full length, expressed in S. cerevisiae INVSc1 with Lotus japonicus CPR and beta-amyrin synthase OSC1

T7 sequence (A0A5P8TXJ3 entry or part of it): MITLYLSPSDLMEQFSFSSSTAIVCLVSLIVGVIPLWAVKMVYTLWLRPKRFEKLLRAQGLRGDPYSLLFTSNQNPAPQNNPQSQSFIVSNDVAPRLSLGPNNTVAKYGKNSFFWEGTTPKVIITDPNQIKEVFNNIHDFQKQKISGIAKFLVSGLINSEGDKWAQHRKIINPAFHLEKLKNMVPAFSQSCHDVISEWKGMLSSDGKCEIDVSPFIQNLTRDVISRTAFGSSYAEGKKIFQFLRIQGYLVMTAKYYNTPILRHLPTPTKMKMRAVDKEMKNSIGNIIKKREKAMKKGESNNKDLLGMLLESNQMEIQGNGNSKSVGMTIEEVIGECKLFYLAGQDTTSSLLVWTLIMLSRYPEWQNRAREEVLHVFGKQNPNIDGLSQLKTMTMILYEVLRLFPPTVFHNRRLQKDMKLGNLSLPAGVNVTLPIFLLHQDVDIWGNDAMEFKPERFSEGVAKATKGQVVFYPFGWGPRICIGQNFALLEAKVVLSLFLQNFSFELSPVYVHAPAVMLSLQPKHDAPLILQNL
T2 sequence (A0A5P8TXT7 entry or part of it): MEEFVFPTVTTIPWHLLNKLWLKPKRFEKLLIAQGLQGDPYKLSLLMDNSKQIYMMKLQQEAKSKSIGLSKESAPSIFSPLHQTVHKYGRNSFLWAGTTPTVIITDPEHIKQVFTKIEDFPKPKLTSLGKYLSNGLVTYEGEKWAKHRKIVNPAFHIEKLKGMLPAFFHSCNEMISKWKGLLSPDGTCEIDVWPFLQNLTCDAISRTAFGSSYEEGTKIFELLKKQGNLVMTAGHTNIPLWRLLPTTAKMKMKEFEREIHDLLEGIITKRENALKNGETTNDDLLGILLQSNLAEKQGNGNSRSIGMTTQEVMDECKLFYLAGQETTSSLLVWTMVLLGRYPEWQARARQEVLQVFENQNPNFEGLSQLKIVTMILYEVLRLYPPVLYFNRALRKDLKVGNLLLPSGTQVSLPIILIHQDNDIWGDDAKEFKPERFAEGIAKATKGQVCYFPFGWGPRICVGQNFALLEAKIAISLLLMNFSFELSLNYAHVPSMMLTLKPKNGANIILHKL
T11 sequence (A0A5P8TY60 entry or part of it): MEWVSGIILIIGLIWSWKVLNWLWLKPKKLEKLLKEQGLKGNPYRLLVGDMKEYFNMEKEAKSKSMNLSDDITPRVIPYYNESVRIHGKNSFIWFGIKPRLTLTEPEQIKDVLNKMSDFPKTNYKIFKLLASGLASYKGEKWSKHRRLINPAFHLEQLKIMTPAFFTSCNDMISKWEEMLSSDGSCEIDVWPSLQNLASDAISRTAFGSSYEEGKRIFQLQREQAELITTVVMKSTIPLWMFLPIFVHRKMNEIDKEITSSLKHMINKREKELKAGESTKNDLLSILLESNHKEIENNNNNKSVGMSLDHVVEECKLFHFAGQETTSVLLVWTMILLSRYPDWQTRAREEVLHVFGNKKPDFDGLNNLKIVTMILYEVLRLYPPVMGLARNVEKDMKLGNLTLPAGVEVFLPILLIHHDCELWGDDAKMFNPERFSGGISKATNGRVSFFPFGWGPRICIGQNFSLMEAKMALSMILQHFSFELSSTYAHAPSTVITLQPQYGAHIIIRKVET
T9 sequence (H1A981 whole entry L149V/L398V, the tested form may be a part): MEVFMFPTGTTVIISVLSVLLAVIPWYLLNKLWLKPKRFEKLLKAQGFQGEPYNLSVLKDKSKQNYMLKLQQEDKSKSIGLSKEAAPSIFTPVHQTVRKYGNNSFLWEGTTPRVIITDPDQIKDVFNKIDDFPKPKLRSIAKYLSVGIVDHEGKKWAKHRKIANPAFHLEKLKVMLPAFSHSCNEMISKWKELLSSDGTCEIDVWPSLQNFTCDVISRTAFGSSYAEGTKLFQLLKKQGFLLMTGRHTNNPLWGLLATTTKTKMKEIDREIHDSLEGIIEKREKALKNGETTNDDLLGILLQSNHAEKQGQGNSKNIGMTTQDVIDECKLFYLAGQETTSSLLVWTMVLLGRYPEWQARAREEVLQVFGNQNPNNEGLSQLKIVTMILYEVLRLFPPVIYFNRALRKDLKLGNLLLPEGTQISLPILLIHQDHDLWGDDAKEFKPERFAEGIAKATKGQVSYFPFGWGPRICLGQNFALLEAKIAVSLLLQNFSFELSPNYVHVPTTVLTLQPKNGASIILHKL
T6 sequence (H1A988 whole entry): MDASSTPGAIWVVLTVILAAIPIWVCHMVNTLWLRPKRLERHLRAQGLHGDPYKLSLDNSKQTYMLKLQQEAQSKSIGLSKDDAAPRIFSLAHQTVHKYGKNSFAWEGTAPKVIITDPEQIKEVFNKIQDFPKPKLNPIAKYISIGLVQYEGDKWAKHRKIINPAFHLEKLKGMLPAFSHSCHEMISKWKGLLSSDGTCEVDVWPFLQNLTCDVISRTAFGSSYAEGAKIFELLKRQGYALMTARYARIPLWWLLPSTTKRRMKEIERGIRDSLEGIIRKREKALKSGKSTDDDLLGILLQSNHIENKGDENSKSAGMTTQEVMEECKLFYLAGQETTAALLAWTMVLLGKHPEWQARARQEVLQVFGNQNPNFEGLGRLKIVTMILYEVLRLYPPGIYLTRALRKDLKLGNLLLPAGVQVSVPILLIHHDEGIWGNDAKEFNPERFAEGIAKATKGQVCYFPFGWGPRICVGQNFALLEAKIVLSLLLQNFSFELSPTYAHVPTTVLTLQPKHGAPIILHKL
T3 sequence (A0A5P8TXP5 1-518): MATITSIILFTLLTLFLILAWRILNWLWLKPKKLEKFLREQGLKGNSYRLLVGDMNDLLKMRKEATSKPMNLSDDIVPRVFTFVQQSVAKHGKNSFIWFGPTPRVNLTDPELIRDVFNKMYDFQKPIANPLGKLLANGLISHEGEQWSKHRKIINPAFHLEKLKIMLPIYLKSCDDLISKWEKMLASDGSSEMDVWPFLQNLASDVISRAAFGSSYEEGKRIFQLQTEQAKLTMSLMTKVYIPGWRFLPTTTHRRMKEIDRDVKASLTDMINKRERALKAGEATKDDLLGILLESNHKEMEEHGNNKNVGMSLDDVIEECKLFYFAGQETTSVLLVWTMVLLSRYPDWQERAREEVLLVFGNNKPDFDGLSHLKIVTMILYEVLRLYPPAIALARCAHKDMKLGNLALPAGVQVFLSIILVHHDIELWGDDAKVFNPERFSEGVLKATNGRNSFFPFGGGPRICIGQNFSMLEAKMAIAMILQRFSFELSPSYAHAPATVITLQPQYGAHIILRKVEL
T10 sequence (H1A980 entry or part of it): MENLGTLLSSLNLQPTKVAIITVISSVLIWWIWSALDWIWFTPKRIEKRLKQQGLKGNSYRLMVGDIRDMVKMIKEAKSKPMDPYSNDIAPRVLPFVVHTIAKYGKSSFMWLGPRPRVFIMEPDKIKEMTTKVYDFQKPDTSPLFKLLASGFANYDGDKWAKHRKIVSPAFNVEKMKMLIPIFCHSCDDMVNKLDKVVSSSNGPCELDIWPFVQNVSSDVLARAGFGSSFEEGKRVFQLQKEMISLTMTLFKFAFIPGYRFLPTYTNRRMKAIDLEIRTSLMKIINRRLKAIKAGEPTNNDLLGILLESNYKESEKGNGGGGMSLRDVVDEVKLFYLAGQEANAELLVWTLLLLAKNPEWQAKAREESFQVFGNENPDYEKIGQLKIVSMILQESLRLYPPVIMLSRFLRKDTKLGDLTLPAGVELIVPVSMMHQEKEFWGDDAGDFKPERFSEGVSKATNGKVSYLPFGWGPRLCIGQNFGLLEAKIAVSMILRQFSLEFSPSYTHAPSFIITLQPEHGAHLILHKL
T8 sequence (A0A5P8TY68 1-520): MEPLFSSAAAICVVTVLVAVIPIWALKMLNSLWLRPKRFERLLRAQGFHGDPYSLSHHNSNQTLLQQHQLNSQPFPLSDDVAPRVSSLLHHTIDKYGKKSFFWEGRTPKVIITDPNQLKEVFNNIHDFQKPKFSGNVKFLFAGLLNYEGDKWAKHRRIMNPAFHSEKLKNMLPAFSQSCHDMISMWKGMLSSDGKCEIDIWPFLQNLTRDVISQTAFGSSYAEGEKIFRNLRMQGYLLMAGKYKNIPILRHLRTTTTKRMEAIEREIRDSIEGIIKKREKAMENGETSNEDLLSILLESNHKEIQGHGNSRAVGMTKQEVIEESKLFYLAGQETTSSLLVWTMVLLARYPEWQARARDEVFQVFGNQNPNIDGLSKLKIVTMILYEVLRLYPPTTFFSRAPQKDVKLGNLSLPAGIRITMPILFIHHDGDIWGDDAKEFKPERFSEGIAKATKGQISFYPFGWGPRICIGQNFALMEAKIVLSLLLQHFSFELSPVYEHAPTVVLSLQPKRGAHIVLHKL
T4 sequence (A0A5P8TXS9 entry or part of it): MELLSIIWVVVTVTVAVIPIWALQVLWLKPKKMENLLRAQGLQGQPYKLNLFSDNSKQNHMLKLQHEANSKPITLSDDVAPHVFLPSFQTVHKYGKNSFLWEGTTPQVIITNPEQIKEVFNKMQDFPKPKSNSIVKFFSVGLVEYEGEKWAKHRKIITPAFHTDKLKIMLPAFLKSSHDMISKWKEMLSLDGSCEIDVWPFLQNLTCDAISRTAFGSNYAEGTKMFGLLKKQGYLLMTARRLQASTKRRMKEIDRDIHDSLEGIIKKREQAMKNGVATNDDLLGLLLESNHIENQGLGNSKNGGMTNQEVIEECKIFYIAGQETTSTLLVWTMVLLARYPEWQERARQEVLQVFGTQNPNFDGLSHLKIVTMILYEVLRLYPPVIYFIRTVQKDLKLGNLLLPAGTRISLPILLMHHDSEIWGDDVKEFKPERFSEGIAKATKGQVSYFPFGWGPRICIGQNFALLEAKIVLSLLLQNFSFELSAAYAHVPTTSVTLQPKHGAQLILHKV

CC1(C)CC[C@]2(C)CC[C@]3(C)C(=CC[C@@H]4[C@@]5(C)CC[C@H](O)C(C)(C)[C@@H]5CC[C@]43C)[C@@H]2C1 [β-amyrin]
in vivo yeast assay, GC-MS of products (CYP72A559): CYP72A559 and CYP72A560 showed oxidation activity against β-amyrin at the D or E ring
in vivo yeast assay, GC-MS of products (TpCYP72A699): regioselectivity in the C-29 position was common among them
in vivo yeast assay, GC-MS of products (CYP72A560): CYP72A559 and CYP72A560 showed oxidation activity against β-amyrin at the D or E ring
in vivo yeast assay, GC-MS of products (LjCYP72A697): in vivo enzymatic assays showed that they have regioselectivity in the C-29 position
in vivo yeast assay, GC-MS of products (CYP72A63 [1]): CYP72A63 showed oxidation activity against β-amyrin at the C-30 position
in vivo yeast assay, GC-MS of products (GuCYP72A154): GuCYP72A154 and GgCYP72A154 oxidized β-amyrin with less regioselectivity at the D or E ring
in vivo yeast assay, GC-MS of products (VaCYP72A694): in vivo enzymatic assays showed that they have regioselectivity in the C-29 position
in vivo yeast assay, GC-MS of products (Gmax CYP72A141): in vivo enzymatic assays showed that they have regioselectivity in the C-29 position
in vivo yeast assay, GC-MS of products (CYP72A63 [2]): CYP72A63^L149V/L398V and CYP72A63^L149V/L398I had altered product regioselectivity resembling their counterparts
in vivo yeast assay, GC-MS of products (CYP72A61v2): showed oxidation activity against β-amyrin at position C-22β, producing sophoradiol
in vivo yeast assay, GC-MS of products (CYP72A66v2): β-Amyrin C-22β oxidation activity was also detected in CYP72A66v2 (subgroup III)
in vivo yeast assay, GC-MS of products (PvCYP72A302): regioselectivity in the C-29 position was common among them
in vivo yeast assay, GC-MS of products (GpCYP72A154): the non-glycyrrhizin-producing species GpCYP72A154 oxidized β-amyrin
in vivo yeast assay, GC-MS of products (GgCYP72A154): GuCYP72A154 and GgCYP72A154 oxidized β-amyrin with less regioselectivity at the D or E ring
in vivo yeast assay, GC-MS of products (CYP72A62v2): CYP72A62v2^V149L/V398L produced only C-30 oxidized products, 30-hydroxy-β-amyrin and 11-deoxoglycyrrhetinic acid

Reference: publication PMC6901910, “Molecular Basis of C-30 Product Regioselectivity of Legume Oxidases Involved in High-Value Triterpenoid Biosynthesis” (Frontiers in Plant Science, 2019)
